Laboratory results as given in patent US20030153056A1, “Glycosyltransferase proteins” (priority 2000, published 2003).

Experiments:
[1] = target: T1, Brainiac β1-3-N-acetylglucosaminyltransferase (Drosophila melanogaster, UniProt Q24157); test: Substrate specificities of Brainiac β1-3-N-acetylglucosaminyltransferase (acceptor panel, microsomal preparations); type: biochemical; conditions: panel of mono- and disaccharides with aglycons and oligosaccharides
T1 construct: The full coding region of Brainiac was prepared by PCR using genomic DNA; made in house; host or cells: High Five insect cells (baculovirus vector pVL1393); microsomal fractions
T1 sequence (Q24157 1-325): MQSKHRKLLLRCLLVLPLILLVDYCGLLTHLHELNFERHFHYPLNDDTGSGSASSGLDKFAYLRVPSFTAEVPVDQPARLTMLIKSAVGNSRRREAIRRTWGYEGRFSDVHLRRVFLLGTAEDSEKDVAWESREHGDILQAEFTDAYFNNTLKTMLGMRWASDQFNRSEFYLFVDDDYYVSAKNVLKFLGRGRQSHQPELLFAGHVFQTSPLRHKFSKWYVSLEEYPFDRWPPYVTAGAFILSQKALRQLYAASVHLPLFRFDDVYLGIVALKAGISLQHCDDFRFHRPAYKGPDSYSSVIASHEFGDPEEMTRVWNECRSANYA
Method: Fringe-Myc and Fringe-NNN-myc were cloned into baculovirus vector pVL1393 (Pharmingen) and expressed in High Five™ cells. Microsomal fractions were prepared by hypotonic lysis ultracentrifugation and solubilised 1:2 (vol/vol) in 20 mM Cacodylate pH 6.5, 1% Triton-CF54, 5 MM MnCl2 containing Leupeptin and Aprotinin as described previously (Amado et al., 1998). For glycosyltransferase assays, 5 μl of this suspension were added to a total of 50 μl reaction mixture containing 25 mM Cacodylate pH 6.5, 0.25% Triton-CF54, 5 mM MnCl2, 500 mM free sugar, 100 μM UDP-^14C-sugar (1280-2000 cpm/nmol). Reactions were incubated at 37° C. for 45-60 minutes, followed by Dowex-1 anion exchange chromatography and scintillation counting of 50% of the flow-through.
Brainiac-full was cloned into baculovirus vector pVL1393 (Pharmingen) and expressed in High Five cells. […] Initial analysis of activity was done with five monosaccharides and four donor sugar nucleotides as described in FIG. 5 for Fringe. Assays with the acceptors listed in Table 1 were performed as described for Fringe except no additional detergent was added. Reactions with glycolipid substrates were performed in the presence of 0.5% N-octylglucoside in 50 ul reaction volume containing 10 μg glycolipid.
In the latter case the acceptor sugar was not determined.

[2] = target: T1, Brainiac β1-3-N-acetylglucosaminyltransferase; test: as above; type: biochemical; conditions: microsomes of pVL-Brainiac infected High Five cells, background of irrelevant construct subtracted, donor UDP-GlcNAc
[3] = target: T2, human β3GnT2 (Homo sapiens, UniProt Q9NY97); test: human β3GnT2 activity with glycolipid acceptors; type: biochemical; conditions: not shown
T2 sequence (Q9NY97 1-397): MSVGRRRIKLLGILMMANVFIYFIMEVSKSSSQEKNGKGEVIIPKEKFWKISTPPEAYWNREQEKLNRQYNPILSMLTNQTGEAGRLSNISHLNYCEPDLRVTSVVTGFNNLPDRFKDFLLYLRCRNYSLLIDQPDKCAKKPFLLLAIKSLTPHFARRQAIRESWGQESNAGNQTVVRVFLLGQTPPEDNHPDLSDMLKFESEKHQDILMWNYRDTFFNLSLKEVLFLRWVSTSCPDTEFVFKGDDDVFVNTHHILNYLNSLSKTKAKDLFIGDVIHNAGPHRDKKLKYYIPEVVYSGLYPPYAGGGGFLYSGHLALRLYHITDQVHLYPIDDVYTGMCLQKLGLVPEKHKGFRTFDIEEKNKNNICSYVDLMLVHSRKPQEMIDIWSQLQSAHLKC
Description: It is interesting to note that Brainiac also functions with Lac-Cer, a glycolipid which has never been described from insects. Brainiac is the ancestral gene of a very large homologous β3glycosyltransferase gene family in mammalian cells, and the members of this family with closest sequence similarity to Brainiac is represented by a family of β3GlcNAc-transferases with similar specificity for Lac-Cer (Shiraishi et al., 2001, J. Biol. Chem., 276: 3498-3507.). One of these designated human β3GnT2 was analysed in detail and shown to use Lac-Cer but not Mac-Cer (not shown).

[4] = target: T3, Brainiac (Drosophila melanogaster, UniProt Q24157); test: Brainiac activity towards glycosphingolipids; type: biochemical; conditions: 10 μg purified glycolipid, 300 μM UDP-14C-N-acetylglucosamine, FIG. 8
T3 construct: The full coding region of Brainiac was prepared by PCR using genomic DNA; made in house; host or cells: High Five insect cells (baculovirus vector pVL1393); microsomal fractions
T3 sequence (Q24157 1-325): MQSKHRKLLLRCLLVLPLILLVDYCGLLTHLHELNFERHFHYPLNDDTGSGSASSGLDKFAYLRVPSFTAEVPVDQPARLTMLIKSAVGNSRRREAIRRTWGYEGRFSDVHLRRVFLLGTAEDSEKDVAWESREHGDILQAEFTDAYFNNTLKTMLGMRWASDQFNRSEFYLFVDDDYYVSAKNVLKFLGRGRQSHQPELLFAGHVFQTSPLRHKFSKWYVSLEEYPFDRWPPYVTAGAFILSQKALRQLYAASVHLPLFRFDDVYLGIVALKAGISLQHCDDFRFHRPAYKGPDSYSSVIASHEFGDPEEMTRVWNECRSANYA
Method: FIG. 8: Brainiac activity towards glycosphingolipids purified from insect cells. Microsomal fractions (1.5 mg) of insect cells transfected with pVL-brainiac and pVL-fringe were used as the enzyme source. Reactions contained 10 μg of purified glycolipids and 300 μM of UDP-^14C-N-acetylglucosamine (8200 cpm/nmol). Products were purified on C18-silica cartridges, spotted on HPTLC-plates, developed in 60:35:8 (chloroform:methanol:water) and exposed for autoradiography.
Brainiac-full was cloned into baculovirus vector pVL1393 (Pharmingen) and expressed in High Five cells. Microsomal fractions were prepared as described above for Fringe but with 0.5% N-octylglucoside as Triton X-100 and related detergents destroyed the activity. Initial analysis of activity was done with five monosaccharides and four donor sugar nucleotides as described in FIG. 5 for Fringe. Assays with the acceptors listed in Table 1 were performed as described for Fringe except no additional detergent was added. Reactions with glycolipid substrates were performed in the presence of 0.5% N-octylglucoside in 50 ul reaction volume containing 10 μg glycolipid.
Glycolipids were obtained from Sigma or purified from High Five insect cells grown in serum free medium. […]

[5] = tested on: Notch activation in the wing imaginal disc; test: Ectopic expression under patched GAL4 control in wing imaginal disc, Wingless expression; type: in vivo, Drosophila; conditions: expressed under patched GAL4 control
Description: (e), (f), (g) Wing imaginal discs labelled to visualise Wingless protein (left panel) and the myc epitope tag (right panel). (e) patched^GAL4/+wing disc. Wingless is expressed in a continuous stripe along the DV boundary. (f) patched^GAL4/UAS-Fringe-GalNT3-myc. Golgi-tethered Fringe-GalNT3-myc expression in the patched^GAL4 stripe is shown in the right-hand panel. The endogenous Wingless stripe is interrupted where the Golgi-tethered Fringe stripe crosses the DV boundary (left panel). At the anterior-posterior compartment boundary the Golgi-tethered Fringe stripe abuts the endogenous Wingless stripe and induces ectopic expression of Wingless in the ventral compartment. This pattern is identical to that reported for ectopic expression of wild-type (secreted) Fringe shown in panel (g) for the Golgi-tethered Fringe D: dorsal compartment. V ventral compartment. Posterior is to the right. […] These effects precisely match those caused by expression of wild-type Fringe (not shown; see Panin et al., 1997; Kim et al., 1995). […] Cells were transfected to express Notch, wild-type Fringe-wt-myc, or mutant Fringe-NNN-myc as indicated. Cells transfected with empty vector were used as a control. Fringe-NNN-Myc has no activity in the binding assay, despite being expressed at higher levels than Fringe-wt-Myc.

[6] = target: T4, Notch (Drosophila melanogaster, UniProt P07207); test: Delta-AP binding to Notch transfected S2 cells; type: cell-based; conditions: co-expressed with Notch in S2 cells
T4 construct: expressed in transfected cells; host or cells: Drosophila Schneider S2 cells, transient transfection, pRmHa3
Method: Cell culture and Binding assays: cDNAs for expression in Schneider S2 cells were cloned into pRmHa3. Cells were transiently transfected by the CaPO4 method using 6-8 μg of DNA per well in 6 well plates. Expression was induced by addition of 0.7 mM CuSO4 for 2 days. Conditioned medium was collected from Notch-AP and Delta-AP transfected cells 2 days after induction. AP activity was adjusted to normalise activity levels of Notch-AP or Delta-AP expressed with or without Fringe. Binding was performed as described in Cheng and Flanagan, 1994. In brief, AP-containing supernatants were supplemented with 0.1% NaN3, and incubated 90 min at room temperature. Cells were washed 5 times in HBSS containing 0.05% BSA and 0.1% azide, and lysed in 10 mM Tris pH 8, 1% Triton-X100. Endogenous AP was inactivated by heat treatment for 10 min 60° C. and the lysates clarified by centrifugation. AP activity was measured in 1M Diethanolamine, 1 mM MgCl2, 5 mM para-nitrophenyl phosphate. Bound AP activity was quantified in 96 well plates using a microplate reader and Micromanager software (BioRad). An additional replicate of each transfection was prepared for immunoblot analysis. Lysates were prepared separately for Immunoblot analysis to allow inclusion of protease inhibitors which are not used in the binding assay. To measure interaction of Delta-AP with transiently transfected S2 cells, bound AP activity was quantified in an enzymatic colour reaction. Cells transfected with empty vector were used as a control. […] AP activity is shown in mOD units/minute in cell extracts (replicate experiments are shown in this figure). In this experiment Fringe stimulated binding by over 50 fold. […] However, the assay allows measurement of Fringe-dependent stimulation of Delta-AP binding.

T4 sequence (P07207 53-2703): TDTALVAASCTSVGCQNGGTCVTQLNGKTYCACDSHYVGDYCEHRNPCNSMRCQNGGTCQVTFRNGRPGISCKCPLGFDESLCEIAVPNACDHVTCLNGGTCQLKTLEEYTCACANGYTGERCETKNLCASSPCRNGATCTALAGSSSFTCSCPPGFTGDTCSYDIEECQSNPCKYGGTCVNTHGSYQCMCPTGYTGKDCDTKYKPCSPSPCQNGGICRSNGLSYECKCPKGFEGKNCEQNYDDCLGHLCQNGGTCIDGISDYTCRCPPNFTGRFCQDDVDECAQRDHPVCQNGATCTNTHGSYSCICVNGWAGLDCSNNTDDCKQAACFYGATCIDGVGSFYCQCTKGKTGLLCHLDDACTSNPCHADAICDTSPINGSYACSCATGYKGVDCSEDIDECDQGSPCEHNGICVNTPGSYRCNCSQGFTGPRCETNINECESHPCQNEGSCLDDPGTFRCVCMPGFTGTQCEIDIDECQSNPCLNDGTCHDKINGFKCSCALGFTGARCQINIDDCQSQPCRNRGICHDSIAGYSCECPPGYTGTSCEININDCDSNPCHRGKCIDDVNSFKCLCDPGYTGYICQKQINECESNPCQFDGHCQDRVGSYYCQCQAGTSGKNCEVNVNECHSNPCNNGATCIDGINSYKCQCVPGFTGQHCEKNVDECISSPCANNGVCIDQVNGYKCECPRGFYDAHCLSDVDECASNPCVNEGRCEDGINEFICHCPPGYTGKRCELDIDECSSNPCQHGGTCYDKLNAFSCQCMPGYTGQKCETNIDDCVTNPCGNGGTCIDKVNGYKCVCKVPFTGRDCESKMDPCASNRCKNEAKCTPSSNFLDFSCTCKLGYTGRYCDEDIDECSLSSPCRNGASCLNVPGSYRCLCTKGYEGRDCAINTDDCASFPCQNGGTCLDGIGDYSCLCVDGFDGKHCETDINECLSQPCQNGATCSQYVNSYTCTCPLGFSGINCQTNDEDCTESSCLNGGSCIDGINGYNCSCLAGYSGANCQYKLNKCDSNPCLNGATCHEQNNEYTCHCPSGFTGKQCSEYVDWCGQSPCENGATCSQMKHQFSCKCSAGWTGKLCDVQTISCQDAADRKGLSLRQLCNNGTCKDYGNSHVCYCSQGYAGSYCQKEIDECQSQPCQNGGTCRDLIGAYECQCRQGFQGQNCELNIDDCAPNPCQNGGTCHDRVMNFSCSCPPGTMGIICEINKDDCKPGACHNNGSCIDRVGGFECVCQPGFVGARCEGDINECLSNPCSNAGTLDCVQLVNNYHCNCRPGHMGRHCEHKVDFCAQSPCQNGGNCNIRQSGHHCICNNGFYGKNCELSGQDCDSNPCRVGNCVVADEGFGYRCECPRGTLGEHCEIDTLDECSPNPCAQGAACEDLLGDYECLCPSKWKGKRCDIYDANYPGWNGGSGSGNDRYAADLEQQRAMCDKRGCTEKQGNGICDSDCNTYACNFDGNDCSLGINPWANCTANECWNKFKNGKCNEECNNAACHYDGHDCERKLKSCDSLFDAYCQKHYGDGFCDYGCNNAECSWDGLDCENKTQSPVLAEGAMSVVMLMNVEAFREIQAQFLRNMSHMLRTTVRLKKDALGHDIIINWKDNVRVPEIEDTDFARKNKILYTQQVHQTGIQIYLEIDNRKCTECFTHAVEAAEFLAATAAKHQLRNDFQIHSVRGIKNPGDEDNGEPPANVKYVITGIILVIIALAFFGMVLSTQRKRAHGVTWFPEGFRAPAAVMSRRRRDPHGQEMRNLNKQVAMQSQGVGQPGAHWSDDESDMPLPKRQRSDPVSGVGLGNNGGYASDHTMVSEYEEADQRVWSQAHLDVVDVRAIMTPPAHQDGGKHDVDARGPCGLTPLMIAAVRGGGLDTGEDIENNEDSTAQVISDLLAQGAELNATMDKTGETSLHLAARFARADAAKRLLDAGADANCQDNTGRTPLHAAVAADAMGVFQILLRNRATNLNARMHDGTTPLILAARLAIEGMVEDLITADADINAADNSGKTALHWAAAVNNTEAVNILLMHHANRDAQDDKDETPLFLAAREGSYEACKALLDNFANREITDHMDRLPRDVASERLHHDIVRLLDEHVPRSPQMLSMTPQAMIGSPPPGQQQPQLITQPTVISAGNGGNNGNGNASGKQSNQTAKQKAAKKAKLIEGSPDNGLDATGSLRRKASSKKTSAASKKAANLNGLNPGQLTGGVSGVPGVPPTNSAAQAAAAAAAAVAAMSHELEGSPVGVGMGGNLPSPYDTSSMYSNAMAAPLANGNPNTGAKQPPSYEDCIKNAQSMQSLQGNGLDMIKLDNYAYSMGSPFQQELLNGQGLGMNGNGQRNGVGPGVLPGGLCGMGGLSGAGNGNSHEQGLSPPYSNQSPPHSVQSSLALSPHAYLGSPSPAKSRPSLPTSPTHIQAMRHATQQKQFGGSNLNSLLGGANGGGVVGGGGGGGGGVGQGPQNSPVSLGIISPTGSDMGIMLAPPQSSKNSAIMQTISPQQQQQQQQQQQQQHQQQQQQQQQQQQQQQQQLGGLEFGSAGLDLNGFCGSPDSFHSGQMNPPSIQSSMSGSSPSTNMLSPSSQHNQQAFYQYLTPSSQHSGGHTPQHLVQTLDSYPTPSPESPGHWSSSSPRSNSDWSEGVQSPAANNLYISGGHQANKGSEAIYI

OC[C@H]1OC(O)[C@H](O)[C@@H](O)[C@H]1O (stereo partly drawn) [D-Gal]
Acceptor for Brainiac, in words (detailed analysis) [1]: not found to be acceptors | Brainiac activity with substrate ([2]; substrate 2 mM): 0.00 nmol/h/mg | Brainiac activity with substrate ([2]; substrate 20 mM): 0.00 nmol/h/mg

Manβ1-4Glcβ1-Cer
Glycolipid used by human β3GnT2, in words [3]: not Mac-Cer | Glycolipid substrate for Brainiac, in words [4]: efficient substrate

Galβ1-4Glcβ1-Cer
Glycolipid used by human β3GnT2, in words [3]: use Lac-Cer | Glycolipid substrate for Brainiac, in words [4]: served as a substrate

B1: Fringe-NNN: Fringe-myc with amino acids D236, 237 and 238 converted to asparagine residues (protein, UniProt Q24342 1-412, looked up, variant D236N D237N D238N)
Fringe glycosyltransferase: MMSLTVLSPPQRFKRILQAMMLAVAVVYMTLLLYQSAYGYPGIQVPHSQVDALASEAVTTHRDQLLQDYVQSSTPTQPGAGAPAASPTTVIIRKDIRSFNFSDIEVSERPTATLLTELARRSRNGELLRDLSQRAVTATPQPPVTELDDIFISVKTTKNYHDTRLALIIKTWFQLARDQTWFFTDTDDHYYQEKTKGHLINTKCSQGHFRKALCCKMSAELDVFLESGKKWFCHFNNNNYVNVPRLVKLLDEYSPSVDWYLGKPSISSPLEIHLDSKNTTTNKKITFWFATGGAGFCLSRALTLKMLPIAGGGKFISIGDKIRFPDDVTMGFIIEHLLKVPLTVVDNFHSHLEPMEFIRQDTFQDQVSFSYAHMKNQWNVIKVDGFDMKTDPKRFYSLHCQLFPYFSFCPPR
modifications: C-terminal myc tag
notes: Fringe-myc with amino acids D236, 237 and 238 converted to asparagine residues
Effect on Wingless expression / Notch activation in wing disc, in words [5]: did not cause Notch activation in the ventral compartment | Effect on Delta-AP binding, in words [6]: did not increase Delta-AP binding above background levels | Effect on Delta-AP binding, in words ([6]; listed as Fringe-NNN-Myc): no activity
